Common to all, as to type: in vivo
Series [1] concerns Tygress tomato plants. The conditions noted are these: for Toxicity (0-10): 0=no injury, 10=plant death. The procedure: (§1) The following experiments were performed in a green house during the spring of 2009 at GCREC, Balm, University of Florida. Crop set-up, procedures and variables were as follows.
(§2) Transplants of ‘Tygress’ tomato plants were planted in 2-gallon pots filled with commercial planting medium with nutrient concentration of Fe, Zn, Mn, Cu being negligible and insufficient for crop growth. Irrigation and non-micronutrient fertilizer were provided daily through microsprinklers at recommended rates for tomato production in Florida. No pesticides were used. Treatments were as described in Tables 42, 43, and 44 below. BIOX-Cu was compared to Cu-sulfate, BIOX-EDC, and BIOX-O; and BIOX-Fe was compared to Fe-sulfate and BIOX-EDF. BIOX-MEZ is Ca-HMTBA.
(§3) Treatments were applied at 6 WAT (weeks after transplanting) using a water volume of 200 mL/plant. Deionized water was used for foliar applications. A non-ionic surfactant was added. Other nutrients were applied as appropriate under non-limiting conditions.
Toxicity of the treatments was assessed by rating foliar tissue using a visual scale, where 0=no injury and 10=plant death.
(§4) Experimental design was a randomized complete block design with 6 replications. Data were analyzed using a general linear model, and means were separated using an LSD test at the 5% significance level.

The test system of series [2] is Tygress tomato plants. The series is described as follows: Yields of tomato fruits, greenhouse spring 2009 (Examples 13-15). The procedure:
as §1, §2, §3
Marketable fruit were collected three times during the growing season, starting at 10 WAT (4 weeks after the initial treatment). Tomato fruit was graded as marketable and non-marketable. Marketable fruit was sized as extra-large, large, and medium. Non-marketable fruit were harvested and number and weight recorded but not sized.
as §4

Series [3] has as its system Tygress tomato plants. Briefly: Foliar nutrient concentration at 7 WAT, greenhouse tomato spring 2009 (Examples 13-15). The procedure: as §1, §2, §3
Foliar tissue nutrient analysis was performed at 3 WAT (i.e., 3 weeks before treatment) and 7 WAT (i.e., 1 weeks after treatment) on the non-applied newest leaves. The concentrations of N, P, K, Mg, Ca, B, Zn, Mn, Fe, and Cu in the foliar tissue were determined by a commercial laboratory. There were no significant differences between the foliar nutrient concentrations of any of the treatment groups prior to treatment.
as §4

In series [4] the test system is Aristotle bell pepper. The procedure:
(§5) The following experiments were performed in a green house during the fall of 2007 at GCREC, Balm, University of Florida. Fifteen products, at 3 different application rates were examined. The plot size was 2-gallon pots. Crop set-up, procedures and variables were as follows.
(§6) Transplants of ‘Florida-47’ tomato and ‘Aristotle’ bell pepper plants in the 4-true leaf stage (about 6 inches tall) were planted in 2-gal pots on Aug. 27, 2007. Pots were filled with a commercially available planting medium. This medium was selected based on the mineral composition of the products to be applied without providing significant nutritional inputs to the crops. Irrigation was provided with drip lines delivering between 0.50 and 0.33 gal/day/pot for tomato and bell pepper, respectively, and the crops were irrigated three times per day. No foliar pesticides were necessary.
(§7) There were four control treatments corresponding to each target micronutrient in which non-Fe, non-Mn, non-Zn or non-Cu pots received all other essential nutrients under non-limiting conditions.
(§8) Treatments were applied at three rates (high, medium and low) obtained from the estimated concentration of Zn, Fe, Cu, and Mn foliarly-applied in tomato and bell pepper in field situations (Table 1). Products were weighed and dissolved in 200 ml of deionized water with a non-ionic surfactant and applied to the newly-matured open leaves of each crop at 3 and 7 weeks after transplant (WAT). Treated pots were isolated during application to avoid cross-contamination of other treatments.
(§9) Medium nutrient concentration was determined 1 week before treatment. The mineral composition of the medium was 26.8 ppm NH4—N, 49 ppm NO3—N, 15.8 ppm P, 91.2 ppm K, 82.3 ppm Ca, 58.2 ppm Mg, 23.9 ppm Na, 125.6 ppm S, 1.33 ppm Fe, 0.39 ppm Mn, 0.35 ppm Zn, 0.05 pp, Cu, 0.04 ppm B, 0 ppm Mo, 0.73 ppm Al, and 12.1 ppm Si. The pH of the medium was 5.36 and the electric conductivity was 1.38 mS/cm. The foliar tissue analysis was performed at 6 WAT and the concentration of N, P, K, Mg, Ca, S, B, Zn, Mn, Fe, and Cu was determined by a commercial laboratory. Plant toxicity was determined at 4 WAT by using a 0-10 visual scale, where 0=no visible damage and 10=total plant death. Marketable fruit weight was collected 2 times in bell pepper and 4 times in tomato following USDA standards.
(§10) Data were analyzed using a general linear model, and means were separated using orthogonal contrasts at the 5% significance level.

Series [5] has as its system Florida-47 tomato. The procedure: as §5, §6, §7, §8, §9, §10
The test system of series [6] is Tygress tomato plants. Briefly: Foliar nutrient concentration at 6 WAT, open-field tomato (Examples 7-10). Particulars: in vivo. The procedure:
The following experiments were performed in open-field plots during the spring of 2008 at GCREC, Balm, University of Florida. Four products delivering Zn (BIOX-Z), Mn (BIOX-M), Cu (BIOX-Cu), and Fe (BIOX-Fe) were compared to other micronutrient supplement formulations in tomato and bell pepper plants.
The plot sizes for the tomato plants were 30-ft plots (15 plants per plot) and 15-ft plots were used for the bell pepper plants (30 plants per plot). Crop set-up, procedures and variables were as follows.
Transplants of ‘Tygress’ tomato plants and ‘Patriot’ bell pepper plants in the 4-true leaf stage (about 6 inches tall) were planted in raised beds in open-field plots. The cross-section of each raised bed was 28 inches wide at the top, 32 inches wide at the base, and 8 inches tall. Irrigation and non-micronutrient fertilizer were provided daily through two drip lines per bed (0.45 gal/100 ft bed/min) at recommended rates for tomato and bell pepper production in Florida. […] The height of the plants for each of the treatment groups was measured at 3 weeks after transplantation (WAT), just prior to treatment with the experimental foliar fertilizers.
All foliar fertilizers except BIOX-CM were applied to the various treatment groups at 3 weeks after transplantation (WAT) and again at 5 WAT. The BIOX-CM treatment was applied at 4 and 5 WAT. The working water volume was 60 gal/acre and a non-ionic surfactant (Ad-Spray 80) was added in the amount of 2 pints/100 gal water. All plots were sprayed with sprayers pressurized at 25 psi and the canopies of both crops were covered with the micronutrient solutions. Treated plots were isolated during foliar fertilizer application to avoid the cross-contamination of other treatments on adjoining plots.
Leaf samples were collected from the most recent mature leaves from each plant at 6 WAT (2 weeks after initial treatment). Foliar tissue analysis was performed by a commercial laboratory to determine the concentration of N, P, K, Mg, Ca, B, Zn, Mn, Fe, and Cu. Tomato marketable fruit weights were collected at 10 and 12 WAT, and the fruits were graded according to USDA standards. Pepper marketable fruit weights were determined beginning at 5 WAT over 5 weekly harvests. Fruit mineral analysis (N, P, K, Mg, Ca, B, Zn, Mn, Fe, and Cu) was performed on samples from the tomato harvest.
The experimental design was a randomized complete block design with 5 replications for each treatment. All comparison data were analyzed using a general linear model and the means of each treatment were separated with a Fisher's protected LSD test at the 5% significance level.

Setting [7] is: High rate, 1 week after treatment, scale 0 = no visible injury, 10 = plant death.
[8] abbreviates: Low rate, 1 week after treatment, scale 0 = no visible injury, 10 = plant death.
The mark [9] stands for this setting: Medium rate, 1 week after treatment, scale 0 = no visible injury, 10 = plant death.
The mark [10] stands for this setting: tomato and bell pepper plants stated together, Fall 2007 greenhouse.
[11] abbreviates: BIOX-Cu at 0.46 and 0.55 lb/acre, Cu-sulfate at 0.8 lb/acre, BIOX-EDC at 0.4 lb/acre.

Read-outs that look alike come from different tables or passages of the source.

Consider `O=S(=O)([O-])[O-].[Fe+2]` [Fe sulfate], for which the “Toxicity (0-10)” value in series [1] (Fe 2.0 lb/acre) was 5. In series [2] (Fe 2.0 lb/acre), this compound gave a Marketable yield of 1100 g/plant. The “Foliar Fe concentration” value in series [3] (Fe 2.0 lb/acre, tomato leaves 1 week after treatment) came to 888 ppm.

On to EDTA chelated iron [BIOX-EDI], for which the Pepper toxicity in series [4] (setting [7]), in series [4] (setting [8]) and in series [4] (setting [9]) was 9 each time. Besides, the Tomato toxicity in series [5] (setting [7]), in series [5] (setting [8]) and in series [5] (setting [9]) was 8 each time. For the same compound, in series [5] (setting [10]), the “Foliar injury (in words)” value is “from light leaf speckling to severe necrosis and plant decay”.

Compound `NCC(=O)[O-].NCC(=O)[O-].[Cu+2]` [BIOX-GC, copper glycinate] showed a Pepper toxicity in series [4] (in vivo) of 7. In addition, in series [5] (in vivo), the “Foliar injury (in words)” value is “from light leaf speckling to severe necrosis and plant decay”; the Tomato toxicity was 7; the Toxicity scale score came to 7. Further, the “Foliar Zn concentration of tomato plants, statement” value in series [6] is on record as “slightly higher foliar Zn concentration”.

`O=S(=O)([O-])[O-].[Cu+2]` [Cu sulfate]: the “Toxicity (0-10)” value in series [1] (Cu 0.8 lb/acre) is reported as 6. Further, the Marketable yield in series [2] (Cu 0.8 lb/acre) worked out at 1200 b g/plant. The “Foliar Cu concentration” value in series [3] (Cu 0.8 lb/acre, tomato leaves 1 week after treatment) came to 986 ppm.

Consider `O=S(=O)([O-])[O-].[Fe+2]` [BIOX-INI, ferrous sulfate], for which, in series [1] (all levels of BIOX-Fe, Fe-sulfate at 2.0 lb/acre, BIOX-EDF at 0.3 lb/acre), the “Toxicity relative to the non-treated control, statement” value is “increased toxicity”. In series [4] (in vivo), the Pepper toxicity was found to be 7. Besides, in series [5] (in vivo), the “Foliar injury (in words)” value was “from light leaf speckling to severe necrosis and plant decay”; the Tomato toxicity came to 7; the Toxicity scale scores was 7-9. Moreover, the “Marketable tomato yields compared to non-treated control, statement” value in series [2] (BIOX-Fe at all levels, Fe-sulfate at 2.0 lb/acre, BIOX-EDF at 0.3 lb/acre) is on record as “decreased marketable yields relative to the non-treated control”. Also, in series [3] (7 WAT (1 week after treatment)), the “Foliar Fe concentration in tomato leaves, statement” value is given as “highest Fe concentrations”.

Consider manganese glycinate [BIOX-GM], for which the Pepper toxicity in series [4] (setting [7]), in series [4] (setting [8]) and in series [4] (setting [9]) was 7 throughout. For the same compound, the Tomato toxicity in series [5] (setting [7]), in series [5] (setting [8]) and in series [5] (setting [9]) was 7 throughout. This compound came in with a Toxicity scale score in series [5] (similar manganese concentrations (0.015% to 0.124% by weight), scale 0-10, both crops) of 7. Moreover, in series [5] (setting [10]), the “Foliar injury (in words)” value is “from light leaf speckling to severe necrosis and plant decay”.

As for EDTA chelated copper [BIOX-EDC], in series [1] (setting [11]), the “Toxicity compared to non-treated control plants, statement” value was “increased levels of toxicity”. In series [1] (Cu 0.4 lb/acre), the “Toxicity (0-10)” value turned out to be 6. Besides, the Pepper toxicity in series [4] (setting [7]), in series [4] (setting [8]) and in series [4] (setting [9]) was 8 in each case. Moreover, the Tomato toxicity in series [5] (setting [7]), in series [5] (setting [8]) and in series [5] (setting [9]) was 8 throughout. This compound also gave a Toxicity scale score in series [5] (comparable ranges of copper concentrations (0.004% to 0.061% by weight), scale 0-10, both crops) of 8. Further, the “Foliar injury (in words)” value in series [5] (setting [10]) is “from light leaf speckling to severe necrosis and plant decay”. Also, the “Marketable tomato yields compared to non-treated control, statement” value in series [2] (setting [11]) is reported as “did not alter marketable yields relative to the non-treated control”. The compound also gave a Marketable yield in series [2] (Cu 0.4 lb/acre) of 1550 b g/plant. The “Copper concentrations in tomato leaves, statement” value in series [3] (7 WAT (1 week after treatment)) is “highest leaf copper concentrations”. The “Foliar Cu concentration” value in series [3] (Cu 0.4 lb/acre, tomato leaves 1 week after treatment) is on record as 678 ppm.

The record behind these values is patent publication US20110098177A1, “METHODS AND COMPOSITIONS OF PLANT MICRONUTRIENTS” (NOVUS INTERNATIONAL INC., priority 2006, published 2011).
